How the values were obtained:
[1] = tested on: PSC-CMs cultured in monolayer; assay: In-vitro spontaneous beat rate of PSC-CMs under anti-arrhythmic drugs; assay type: cell-based, human; details: 0-100 μM drug concentrations
Excerpt: FIG. 3. […] A further 2 animals underwent sham infarction and vehicle injection. (b) Representative CMR reconstruction (created with ADAS 3D) merged with epicardial voltage map, used to choose, and annotate border and infarct zone injection sites (black circles). (c) Plot depicting the percentage of time per day each cell (red), cell and drug (blue), or vehicle (green) recipient spent in ventricular arrhythmia over course of study protocol. […] (f) Dose-dependent suppression of PSC-CM contraction rate using amiodarone (dark purple, square) and ivabradine (light purple, circle) in vitro (0-100 μM drug concentrations). […] (h) Telemetry strip from representative cell and anti-arrhythmic recipient showing predominantly sinus rhythm with occasional ventricular ectopic beat. (i-k) Arrythmia parameters from day 0 to day 28 for each subject, grouped by treatment allocation (presented as mean±SEM). […]
Given the automatic mechanism for PSC-CM EAs, the inventors hypothesised that suppressing the rate of graft automaticity below that of the native sinus node would reduce arrhythmia burden. […] To further interrogate this finding the beat rates of sinus rhythm and EAs for each animal were analysed.

[2] = tested on: H9 human embryonic stem cell line containing a gCaMP6f reporter, differentiating aggregates; assay: Bioreactor PSC-CM differentiation with retinoic acid signalling activated: cTnT flow cytometry, qPCR, scRNA-seq, beat frequency; assay type: cell-based
Protocol: The H9 cell line containing the gCaMP6f fluorescent calcium reporter was used for all experiments (provided by University of Queensland StemCore facility). Each production run was started from a frozen working cell bank (WCB) cryovial, which was expanded for 8 days in monolayer on matrigel (Corning) using the commercially available medium mTeSR™ Plus (Stem Cell Technologies) (FIG. 1). On Day −3, cells were inoculated at a density of 2.5-3.0×10^5 cells/mL in mTeSR 3D supplemented with 10 μM Y-27632 (TOCRIS Bioscience) and 10 ug/mL of a thermoresponsive polymer pNIPAM conjugated to fibronectin (Chen, X. et al. Tissue Eng Part C Methods 24, 146-157) to form aggregates. A DASbox (Eppendorf) stirred tank bioreactor system was used for aggregate formation and suspensions controlled at 37.2° C., pH 7.2, and 30% DO. At day −1, rapamycin (Merck) was added to a final concentration of 5 nM to enhance survival during differentiation. […]
The expression of cTnT was measured on a Cytoflex Flow Cytometer (Beckman Coulter). […]
Reactions were performed in technical triplicate. Quantitative PCR was performed on the BioRad CFX96 Real-Time PCR Detection System with standard cycling parameters described in the master mix protocol. […] Fold difference in expression was calculated using the comparative CT formula, using GAPDH cDNA from a reference sample. […]

hPSC SCVI8 = assay: DEAB-treated cardiomyocyte differentiation, RT-PCR at day 14; assay type: cell-based, human; details: DEAB 1 nM-100 μM, day 3 to 7 or day 5 to 7
Protocol: hPSC SCVI8 were cultured in Matrigel® (Corning, Cat. No. 354277) coated petri dishes in complete mTeSR™ Plus basal medium (StemCell Technologies, Cat. No. 100-0276) supplemented with 20% (v/v) mTeSR™ Plus 5× supplement (StemCell Technologies) and 0.5% (v/v) streptomycin and penicillin (ThermoFisher, Cat. No. 15140163) at 37° C. in 5% CO2. Media was changed daily and cells passaged when confluency reached approximately 80%.
Cardiomyocyte differentiation was achieved using small-molecule modulators of canonical Wnt signalling as described by Lian et al. (Lian et al. […]; 8(1):162-175), but with the addition of 1 nM, 1 μM or 100 μM 4-diethylaminobenzaldehyde (DEAB, Sigma Merck, Cat. No. D86256) at either day 3 or 5 of differentiation (FIG. 9a.). In brief, hPSC SCVI8 cells from confluent dishes were washed once with Dulbeco's Phosphate Buffered Saline (DPBS) without calcium and magnesium (Lonza, Cat. No. 17-512F), and harvested with TrypLE™ Express Enzyme (ThermoFisher, Cat. No. 12604021) and seeded at a concentration of 3.75×10^5 cells/mL in Matrigel® coated 12-well plates at a volume of 2 mL of complete mTeSR Plus basal medium and 10 μM Y-27632 (RHO/ROCK) inhibitor (StemCell Technologies, Cat. No. 072304). At day 0 of differentiation, cells were washed once using DPBS and transferred to mesoderm induction media that consisted of 6 μM CHIR99021 (GSK3 inhibitor, Tocris, Cat. No. 4423) in complete Roswell Park Memorial Institute (RPMI) 1640 medium, no glutamine (ThermoFisher, Cat. No. 21870092) supplemented with 2% (v/v) B-27 supplement, minus insulin (ThermoFisher, Cat. No. A1895601), 0.5% (v/v) streptomycin and penicillin and 1% (v/v) GlutaMAX™ supplement (ThermoFisher, Cat. No. 35050061). At day 1, CHIR99021 was removed, and cells maintained in complete RPMI minus insulin. At day 3, cells were transferred to cardiac induction media that consisted of 5 μM IWP-2 (Tocris, Cat. No. 3533) in complete RPMI minus insulin and was removed at day 5. At day 7 of differentiation, cells were maintained in complete RPMI supplemented with 2% (v/v) B-27™ Supplement (50×) (ThermoFisher, Cat. No. 17504-001), 0.5% (v/v) streptomycin and penicillin and 1% (v/v) GlutaMAX™ supplement. The media was changed every 2-3 days. Cells were harvested at day 14 for quantitative real-time polymerase chain reaction (RT-PCR).
Total cellular RNA was extracted using the Isolate II RNA Mini Kit (Bioline, Cat. No. BIO-52073) as per the manufacturer's instructions. Reverse transcription was performed with M-MLV Reverse Transcriptase (Promega, Cat. No. M1701) following the manufacturer's protocol. mRNA gene expression was assessed by qPCR using SensiFAST™ SYBR® No-ROX Kit (Meridian Bioscience, Cat. No. BIO-98050) on the Bio-Rad CFX384 Real-Time PCR detection system, with the following PCR conditions: 95° C. for 2 min and 40 cycles of 95° C. for 5 s, 60° C. for 10 s and 72° C. for 15 s, followed by melt curve analysis. All primers used for detection of mRNA expression are outline in Table 3. All data was normalised to the reference gene 18S and normalised to control cells (non-treated PSC-CM).

Structure (SMILES): COc1cc2c(cc1OC)CC(=O)N(CCCN(C)C[C@H]1Cc3cc(OC)c(OC)cc31)CC2 [Ivabradine]
- spontaneous beat rate of PSC-CMs [1]: dose-dependent reduction in the spontaneous beat rate

Structure (SMILES): CCCCc1oc2ccccc2c1C(=O)c1cc(I)c(OCCN(CC)CC)c(I)c1 [amiodarone]
- spontaneous beat rate of PSC-CMs [1]: dose-dependent reduction in the spontaneous beat rate

Structure (SMILES): CC1=C(/C=C/C(C)=C/C=C/C(C)=C/C(=O)O)C(C)(C)CCC1 [Retinoic acid, retinoic acid]
- cTnT expression ([2]; RA signalling activated day 2 to day 6, n=12, control differentiations in parallel 83.6±7.0%): 62.4±33.1%
- rate of spontaneous contraction of aggregates ([2]; day 15 before aggregate dissociation, n=6, control 14.2±5.5 b.p.m): 50.7±16.8 b.p.m

Structure (SMILES): CCN(CC)c1ccc(C=O)cc1 [DEAB, 4-diethylaminobenzaldehyde]
- expression level of IRX4 (hPSC SCVI8; RT-PCR day 14): no significant difference
- expression level of KCNJ3 (hPSC SCVI8; RT-PCR day 14): significant lower expression levels
- expression level of MYH7 (hPSC SCVI8; RT-PCR day 14): no significant difference
- expression level of MYL2v (hPSC SCVI8; RT-PCR day 14): no significant difference
- expression level of SHOX2 (hPSC SCVI8; RT-PCR day 14): significant lower expression levels
- expression level of cTnT (hPSC SCVI8; RT-PCR day 14, relative to 18S, versus non-treated PSC-CM): no significant difference

Source: patent US20260158074A1, “A Cell Surface Marker Signature for Arrhythmogenic Pluripotent Stem Cell-Derived Cardiomyocytes” (Western Sydney Local Health District, priority 2022, published 2026)
